Each structure is given as a SMILES string. Like-named read-outs stand apart in the source and are kept apart here. Where only a bound is given, the exact number is not on record here.

Series [1] has as its system blood pressure of the narcotized rat. The series is described as follows: Lowering of the blood pressure, narcotized rat. The arrangement: unit not given here. It counts as in vivo. The note with it: 30% lowering.
Series [2] deals with blood pressure increasing effect of adrenaline. The series is described as follows: Inhibition of the pressor effect of adrenaline, despinalized rat. It counts as in vivo. Particulars: iv, 0.001 mg/kg i.v. adrenaline, read-out: 50% inhibition of the press. effect after i.v. administration of adrenaline with.
The test system of series [3] is blood pressure increasing effect of noradrenaline. The series is described as follows: Inhibition of the pressor effect of noradrenaline, despinalized rat. It counts as in vivo. The note with it: iv, 0.001 mg/kg i.v. noradrenaline, read-out: 50% inhibition of the press. effect after i.v. administration of noradrenaline with.
Series [4] in a line: in vivo. The note with it: mouse.
The subject of series [5] is histamine spasm of the isolated small intestine of the guinea pig. The series is described as follows: Antihistamine effect, histamine spasm of isolated small intestine.
Series [6] concerns mouse. The series is described as follows: PD50, rotating rod, mouse. Particulars: ip, read-out: PD50. It counts as in vivo. The text has this: The centrally inhibiting effect of the piperazinyl uracils of the invention in the mouse are apparent from Table IV. […] The selective action of the compounds of the invention on the central blood pressure mechanism can be used advantageously in human therapy in the treatment of hypertonic diseases.
a = Dose, at which an average of 50% of the mice fall from a rotating rod.

Series [7] relates to mouse. The series is described as follows: SD50, sedation symptoms, mouse. It counts as in vivo.
Excerpt: b = Dose, at which at an average 50% of the mice show the following symptoms: inhibition of the spontaneous motility, sadation, muscle relaxation, loss of gripping and holding ability on a horizontal wire net.
The subject of series [8] is mouse. The series is described as follows: Inhibition of the motility in the tread wheel, mouse. It counts as in vivo. The note with it: for inhibition in vivo at 25 mg/kg: ip, 3 h, read-out: % Inhibition of the motility in the tread wheel by 25 mg/kg i.p.
The subject of series [9] is mouse. The series is described as follows: Prolongation of sleep induced by hexobarbital, mouse. The class given is in vivo. The note with it: ip, read-out: % prolongation of sleep induced by hexobarbital by 15 mg/kg i.p.
Description: d = Percent prolongation of the duration of sleep of mice, which were administered 75 mg/kg hexobarbital, compared with the sleep duration of controls.
For series [10], the system named is mouse. The series is described as follows: Analgesic effect, thermal stimulation of the tail of the mouse. It counts as in vivo. The note with it: oral, 25% retardation, read-out: Retardation of the defense reaction upon thermal stimulation of the tail of the mouse by 25%. From the text:
The analgesic effect was thereby determined as the delay in the reaction upon thermal stimulation of the tail of the mouse.

The test system of series [11] is blood pressure of the narcotized cat. The series is described as follows: Lowering of the blood pressure, narcotized cat. It counts as in vivo. Particulars: Felis catus, iv; for ED30: 30% lowering; for ED50: 50% lowering.
The subject of series [12] is carotid sinus relaxation reflex of the narcotized cat. The series is described as follows: Inhibition of the carotid sinus reflex, narcotized cat. The class given is in vivo. The note with it: Felis catus, iv; for ED30: 30% inhibition; for ED50: 50% inhibition.
The mark [13] stands for this setting: mouse, i.p., dose at which an average of 50% of the mice fall from a rotating rod.
Where [14] appears, read: mouse, oral, dose at which 50% show inhibition of spontaneous motility, sedation, muscle relaxation, loss of gripping, read-out: SD50 (the source's name).
Where [15] appears, read: mouse, 25 mg/kg i.p., 5 mg/kg d-amphetamine-sulfate, 180 minutes.
Setting [16] is: mouse, 15 mg/kg i.p., 75 mg/kg hexobarbital, vs controls.
[17] abbreviates: Mus musculus, po, read-out: SD50.

With `COc1ccccc1N1CCN(C(C)CNc2cc(=O)n(C)c(=O)n2C)CC1` (stereo not drawn) [Example 17, 1,3-Dimethyl-4-(β-[4-(o-methoxyphenyl)-piperazinyl-(1)]-propylamino)-uracil], in [1], the “lowering of the blood pressure by 30% by” value is 3.0. Also, the results for the ED50 in series [2] and in [3] were 0.16 mg/kg and 2.3 mg/kg, respectively. This compound came in with a 50% lethal dose (LD50) in [4] of 220 mg/kg.
As for `CN1CCC(OC(c2ccccc2)c2ccccc2)CC1` [Piprinhydrinate, reference compound], the “50% inhibition of the histamine spasm of the isolated small intestine of the guinea pig” value (“50% inhibition” for short) in series [5] came to 1.5e-08 g/mL.
As to `Cc1ccc(N2CCN(CCCNc3cc(=O)n(C)c(=O)n3C)CC2)cc1` [Example 1, 1,3-Dimethyl-4-(γ-[4-(p-tolyl)-piperazinyl-(1) ]-propylamino)-uracil], the “lowering of the blood pressure by 30% by” value in series [1] is 2.9. For the same compound, the ED50 in series [2] turned out to be 1.45 mg/kg; in series [6] (setting [13]), 28 mg/kg; in series [7] (setting [14]) it was 40 mg/kg. Also, in series [8] (setting [15]), the inhibition in vivo at 25 mg/kg is 36%. The change in vivo at 15 mg/kg in series [9] (setting [16]) turned out to be 110%. Further, the ED25 in [10] turned out to be 5 mg/kg. This compound returned an LD50 in [4] of 200 mg/kg.
As to `Cn1c(NCCCN2CCN(c3ccccc3)CC2)cc(=O)n(C)c1=O` [Example 11, 1,3-Dimethyl-4-(γ-[4-phenyl-piperazinyl-(1)]-propylamino)-uracil], the “lowering of the blood pressure by 30% by” value in series [1] came to 0.48. The ED50 in [2] is 1 mg/kg; in series [3] it was over 2.5 mg/kg; in series [6] (setting [13]), 11 mg/kg; in [7] (setting [14]) it was 70 mg/kg. In addition, in series [8] (mouse, 12 mg/kg i.p., 5 mg/kg d-amphetamine-sulfate, 180 minutes), the “% Inhibition of the motility in the tread wheel by 12 mg/kg i.p.” value was 22%. Moreover, the change in vivo at 15 mg/kg in [9] (setting [16]) came to 130%. The compound also showed an LD50 in series [4] of 120 mg/kg.
For the compound `CCCCc1c(NCCCN2CCN(c3ccccc3OC)CC2)n(C)c(=O)n(C)c1=O` [Example 15, 1,3-Dimethyl-4-(γ-[4-(o-methoxyphenyl)-piperazinyl-(1)]-propylamino)-5-n-butyl-uracil], the “lowering of the blood pressure by 30% by” value in series [1] was 0.36. The ED50 in [2] stood at 0.028 mg/kg; in series [3], 2.8 mg/kg. For the same compound, in series [4], the LD50 was 130 mg/kg.
Take `Cn1c(NCCCN2CCN(c3ccc(Cl)cc3)CC2)cc(=O)n(C)c1=O` [Example 13, 1,3-Dimethyl-4-(γ-[4-(p-chlorophenyl)-piperazinyl-(1)]-propylamino)-uracil]: the “lowering of the blood pressure by 30% by” value in series [1] is over 3.4. In addition, the ED50 in [2] is over 2.5 mg/kg. Moreover, in [5], the “50% inhibition” value is 1e-08 g/mL. The same compound yielded an LD50 in [4] of 70 mg/kg.
Regarding `CNC1=Nc2ccc(Cl)cc2C(c2ccccc2)=[N+]([O-])C1` [Chlordiazepoxyde, reference compound], the ED50 in [6] (Mus musculus) turned out to be 38 mg/kg; in series [7] (setting [17]) it was 8 mg/kg. Further, the inhibition in vivo at 25 mg/kg in series [8] (Mus musculus) amounted to 30%. The change in vivo at 15 mg/kg in [9] (Mus musculus) came to 324%.
Turning to `Cc1c(N(C)C)c(=O)n(-c2ccccc2)n1C` [Aminophenazone, reference compound], in series [10], the ED25 was 140 mg/kg.
Take `CCCC(C)(COC(N)=O)COC(N)=O` [Meprobamate, reference compound]: the values for the ED50 in series [6] (Mus musculus) and in [7] (setting [17]) were 95 mg/kg and 300 mg/kg, respectively. Further, in series [8] (Mus musculus), the inhibition in vivo at 25 mg/kg turned out to be 28%. The change in vivo at 15 mg/kg in series [9] (Mus musculus) is 18%.
On to `COc1cccc(N2CCN(CCCNc3cc(=O)n(C)c(=O)n3C)CC2)c1` [Example 7, 1,3-Dimethyl-4-(γ-[4-(m-methoxyphenyl)-piperazinyl-(1)]-propylamino)-uracil], for which the “50% inhibition” value in series [5] was found to be 2e-08 g/mL.
Regarding `CCOc1ccccc1N1CCN(CCCNc2cc(=O)n(C)c(=O)n2C)CC1` [Example 5, 1,3-Dimethyl-4-(γ[4-(o-ethoxyphenyl)-piperazinyl-(1)]-propylamino)-uracil], the “lowering of the blood pressure by 30% by” value in [1] is recorded as 0.36. In addition, the ED50 in series [2] was 0.24 mg/kg; in series [6] (setting [13]) it was 26 mg/kg; in series [7] (setting [14]) it was 98 mg/kg. Further, the inhibition in vivo at 25 mg/kg in [8] (setting [15]) was found to be 46%. Moreover, the change in vivo at 15 mg/kg in series [9] (setting [16]) was 126%. Also, the ED25 in [10] amounted to 9 mg/kg. The compound also gave an LD50 in series [4] of 250 mg/kg.
Take `COc1ccccc1N1CCN(CCCOc2cc(=O)n(C)c(=O)n2C)CC1` [Example 9, 1,3-Dimethyl-4-(γ-[4-(o-methoxyphenyl)-piperazinyl-(1)]-propyloxy)-uracil]: the ED30 came to 0.03 mg/kg in series [11] and 0.17 mg/kg in series [12]. Further, the ED50 stood at 0.14 mg/kg in [11]; 0.26 mg/kg in [12]; 0.15 mg/kg in [2]; 12 mg/kg in series [6] (setting [13]); 30 mg/kg in [7] (setting [14]). Further, the “lowering of the blood pressure by 30% by” value in series [1] is reported as over 3.4. Further, the inhibition in vivo at 25 mg/kg in series [8] (setting [15]) amounted to 79%. Also, the change in vivo at 15 mg/kg in series [9] (setting [16]) is 140%. Further, the ED25 in series [10] worked out at 10 mg/kg. For the same compound, in [4], the LD50 was 400 mg/kg.
`COc1ccccc1N1CCN(CCCNc2c(N)c(=O)n(C)c(=O)n2C)CC1` [Example 20, 1,3-Dimethyl-4-(γ-[4-(o-methoxyphenyl)-piperazinyl-(1)]-propylamino)-5-amino-uracil]: the ED30 in [11] is 0.05 mg/kg; in series [12], 0.06 mg/kg. Further, the ED50 turned out to be 0.15 mg/kg in series [11]; 0.15 mg/kg in series [12]; 0.045 mg/kg in series [2]; 1.6 mg/kg in [3]; 34 mg/kg in series [6] (setting [13]); 80 mg/kg in series [7] (setting [14]). The “lowering of the blood pressure by 30% by” value in [1] is recorded as 0.11. For the same compound, the inhibition in vivo at 25 mg/kg in series [8] (setting [15]) was found to be 42%. The change in vivo at 15 mg/kg in series [9] (setting [16]) stood at 62%. The compound further registered an LD50 in [4] of 500 mg/kg.
As to `COc1ccccc1N1CCN(CCCNc2c([N+](=O)[O-])c(=O)n(C)c(=O)n2C)CC1` [Example 16, 1,3-dimethyl-4-(γ-[4-(o-methoxyphenyl)-piperazinyl-(1)]-propylamino)-5-nitro-uracil], the ED30 in series [11] was 0.21 mg/kg; in [12] it was 0.6 mg/kg. Besides, the ED50 in [11] was found to be 1 mg/kg; in series [12], 2 mg/kg; in [2], 0.17 mg/kg. In addition, the “lowering of the blood pressure by 30% by” value in series [1] turned out to be 1.6. Moreover, in series [10], the ED25 worked out at 10 mg/kg. This compound displayed an LD50 in series [4] of 600 mg/kg.
On to `Cc1ccccc1N1CCN(CCCNc2c(N=O)c(=O)n(C)c(=O)n2C)CC1` [Example 61, 1,3-Dimethyl-4-([4-(o-tolyl)-piperazinyl-(1)]-propyl-amino)-5-nitroso-uraci], for which the “lowering of the blood pressure by 30% by” value in [1] is 0.5. In addition, the ED50 came out at 0.39 mg/kg in series [2] and 3.7 mg/kg in series [3]. The compound further had an LD50 in series [4] of 600 mg/kg.
For `COc1ccccc1N1CCN(CCCNc2c(C)c(=O)n(C)c(=O)n2C)CC1` [Example 14, 1,3,5-Trimethyl-4-(γ-[4-(o-methoxyphenyl)-piperazinyl-(1)]-propylamino)-uracil], the “lowering of the blood pressure by 30% by” value in series [1] is recorded as 0.13. Further, the ED50 was found to be 0.045 mg/kg in [2], 1.2 mg/kg in series [3], 12 mg/kg in series [6] (setting [13]) and 90 mg/kg in series [7] (setting [14]). Further, the inhibition in vivo at 25 mg/kg in series [8] (setting [15]) was found to be 21%. Besides, in series [9] (setting [16]), the change in vivo at 15 mg/kg is 152%. Further, the LD50 in [4] turned out to be 140 mg/kg.
In series [11], `COc1ccccc1N1CCN(CCCNc2c(Br)c(=O)n(C)c(=O)n2C)CC1` [Example 18, 1,3-Dimethyl-4-(γ-[4-(o-methoxyphenyl)-piperazinyl-(1)]-propylamino)-5-bromo-uracil-dihydrobomide] yielded an ED30 of 0.15 mg/kg and an ED50 of over 0.5 mg/kg. In addition, in series [12], the ED30 is 0.13 mg/kg and the ED50 worked out at 1.1 mg/kg.
For `COc1ccc(OC)c(N2CCN(CCCNc3cc(=O)n(C)c(=O)n3C)CC2)c1` [Example 3, 1,3-Dimethyl-4-(γ-[4-(2,5-dimethoxyphenyl)-piperazinyl-(1)]-propylamino)-uracil], the “lowering of the blood pressure by 30% by” value in series [1] stood at 1.4. Besides, in series [2], the ED50 stood at 2.1 mg/kg. The ED25 in series [10] amounted to 7 mg/kg. The same compound registered a median lethal dose (LD50) in series [4] of 430 mg/kg.

The values are drawn from patent US4067982A, “Aryl-substituted piperazinyl-alkylamino-uracils, -uracil ethers and -uracil thioethers as therapeutics” (priority 1976, dated 1978).
